Data published in publication PMC9920254 (Molecules, 2023).
Several values for one entry are separate records, joined by “and”; a condition that tells them apart may be missing. Equal entries are not always repeated. Where two headings read alike, the source gives them in different places.

Key:
[1] = system: UGTs (human LMs); settings: human LMs (HLM)
[2] = system: CYPs; assay: in vitro; settings: human, pH 7.4
[3] = system: CYPs; assay: in vitro; settings: rat, pH 7.4
[4] = system: UGTs (mouse LMs); settings: mouse LMs (MLM)
[5] = system: UGTs (rat LMs); settings: rat LMs (RLM)
[6] = system: IAV; parameters: method as in PMID 32520560; settings: mice, oral dosing; superior to oseltamivir; cited from earlier work
[7] = system: CYPs; assay: in vitro; settings: mouse, pH 7.4
[8] = Pharmacokinetic profile of PND in rats with or without ibrutinib (UGTs inhibitor) pretreatment; format: in vivo, rat; settings: for Cmax / Tmax: 3.5 mg/kg; for MRT inf: n = 3, read-out: MRT0-∞
Description: Ibrutinib, a broad inhibitor of UGTs, was used to block the metabolism of PND via UGTs. PND and ibrutinib were formulated in PEG 300-water (70%: 30%, v/v) and DMSO-Cremophor EL-water (10%: 30%: 60%, v/v/v), respectively. Rats were pretreated through intraperitoneal (i.p.) injection of ibrutinib (100 mg/kg) or vehicle (three rats per group). After 0.5 h, PND (3.5 mg/kg) were administrated via gavage. Then blood samples were taken into heparinized tubes for separating plasma. Time points included before dosing, at 5, 20 and 45 min and 1.25, 2, 3, 4, 6, 8, 12, 24 and 48 h after dosing. Plasma was separated by centrifuging the blood samples at 3000 rpm for 10 min and then stored at −40 °C until analysis. The plasma samples were analyzed using the reported LC–MS/MS method as described in our previous study.
Figures and statistics were plotted and calculated using GraphPad Prism (version 8.4.3) and Microsoft Excel (version 2019). Metabolic pathways were illustrated with ChemBioDraw Ultra (version 13.0). Pharmacokinetic parameters were estimated using non-compartmental methods (WinNonlin version 2.0, Pharsight Co., Certara, NJ, USA). All pharmacokinetic parameters were given as the mean ± standard deviation. All statistical analyses were performed using SAS (version 9.4; SAS Institute Inc., Cary, NC, USA). A p value < 0.05 was considered statistically significant.

[9] = rat bile, after 72 h of administration via gavage (3.5 mg/kg) and injection (0.35 mg/kg)
[10] = system: CYPs (rat LMs); settings: rat LMs (RLM)
[11] = rat LMs
[12] = human LMs
[13] = mouse LMs
[14] = system: CYPs (mouse LMs); settings: mouse LMs (MLM)
[15] = system: CYPs (human LMs); settings: human LMs (HLM)
[16] = parameters: method as in PMID 32520560; settings: cited from earlier work
[17] = Metabolite profiling of PND in rat bile, urine, feces and plasma by UHPLC–HRMS; format: in vivo; settings: feces
Description: Rats, three animals in each group, were randomly selected and treated with PND orally (3.5 mg/kg) or intravenously (0.35 mg/kg). Blood samples were collected into heparinized tubes by retro-orbital bleeding via capillary tubes under isoflurane anesthesia at 0.33, 3 and 8 h after oral administration and at 0.25, 4 and 8 h after intravenous injection. Plasma was separated by centrifuging the blood samples at 3000 rpm for 10 min. Rats were individually housed in metabolic cages (Tecniplast, Buguggiate, Italia) for collecting urine and feces samples. Additionally, the bile duct of rats under anesthesia with chloral hydrate (10% w/v) were cannulated with a S2-RBDC cannula (Skillsmodel, Beijing) for collecting bile. Urine and feces as well as bile samples were collected pre-dosing and at the following intervals postdosing: 0–2, 2–4, 4–6, 6–8, 8–10, 10–12 (0–12 for feces sample), 12–24, 24–36, 36–48 and 48–72 h. Bile and urine volume was recorded. Feces samples were freeze-dried, weighed, powered, added with water (9 mL/g) and homogenized. All samples were stored at −40 °C until analysis.
Identification analysis of metabolites in bio-samples was performed as described previously using a Dionex Ultimate 3000 UHPLC system combined with a Q-Exactive Focus Orbitrap mass spectrometer (Thermo Fischer Scientific, MA, USA) fitted with a CORTECS T3 column (2.1 × 150 mm, 2.7 μm; Waters, MA, USA). […]

[18] = PND i.g 3.5 mg/kg, ibrutinib i.p. 100 mg/kg versus control
[19] = rat, plasma, oral, PND i.g 3.5 mg/kg after i.p. Ibrutinib (100 mg/kg) pretreatment, Mean ± SD, n = 3
[20] = rat, plasma, po, PND i.g 3.5 mg/kg, Control, Mean ± SD, n = 3

For CC(=O)c1cc(C)c(O)c(Cc2[nH]c3ccccc3c2Cc2c(O)c(C)cc(C(C)=O)c2O)c1O [PND, Penindolone], the Clint [1] was 0.089 µL/min, the Km [1] was 23.4 µM and the Vmax [1] was 2.08 nmol/(min×mg Protein). The Km [2] was 97.7 µM, the Km [3] was 15.2 µM and the Clint [4] was 0.198 µL/min. For the same compound, the Km [4] was 31.6 µM, the Vmax [4] was 6 nmol/(min×mg Protein) and 6.25 nmol/(min×mg Protein) and the Clint [5] was 0.030 µL/min. The Km [5] was 46.7 µM, the Vmax [5] was 1.38 nmol/(min×mg Protein) and the “Protection against IAV-induced death and weight loss” value [6] was “protect mice against IAV-induced death and weight loss”. For the same compound, the Km [7] was 16.1 µM, the CLz ([8]; PND i.g 3.5 mg/kg, Control, Mean ± SD, n = 3) was 14.7 ± 3.67 mL/min/kg and the “Elevation of Cmax of PND after pretreatment with ibrutinib” value [8, 18] was 18.78%. The “Increase of AUC0–∞ of PND after combination with ibrutinib” value [8, 18] was 30.56%, the Cmax ([8]; rat, plasma, oral, PND i.g 3.5 mg/kg after i.p. Ibrutinib (100 mg/kg) pretreatment, Mean ± SD, n = 3, read-out: Cmax-1) was 272 ± 36.9 ng/mL and the Tmax ([8]; rat, plasma, oral, PND i.g 3.5 mg/kg after i.p. Ibrutinib (100 mg/kg) pretreatment, Mean ± SD, n = 3, read-out: Tmax-1) was 0.47 ± 0.24 h. It also gave an AUC(0-inf) [8, 19] of 5450 ± 2690 ng·h/mL, a Vd [8, 19] of 15.6 ± 6.42 L/kg and a half-life [8, 19] of 15.8 ± 9.82 h. For the same compound, the clearance ([8]; rat, plasma, oral, PND i.g 3.5 mg/kg after i.p. Ibrutinib (100 mg/kg) pretreatment, Mean ± SD, n = 3, read-out: CLz (converted)) was 13.5 mL/min/kg, the MRT inf ([8]; rat, plasma, oral, PND i.g 3.5 mg/kg after i.p. Ibrutinib (100 mg/kg) pretreatment, Mean ± SD) was 23.9 ± 12.7 h and the Cmax ([8]; rat, plasma, po, PND i.g 3.5 mg/kg, Control, Mean ± SD, n = 3, read-out: Cmax-1) was 229 ± 128 ng/mL. It also gave a Cmax ([8]; rat, plasma, po, PND i.g 3.5 mg/kg, Control, Mean ± SD, n = 3, read-out: Cmax-2) of 197 ± 46.8 ng/mL, a Tmax ([8]; rat, plasma, po, PND i.g 3.5 mg/kg, Control, Mean ± SD, n = 3, read-out: Tmax-1) of 0.61 ± 0.24 h and a Tmax ([8]; rat, plasma, po, PND i.g 3.5 mg/kg, Control, Mean ± SD, n = 3, read-out: Tmax-2) of 6 h. For the same compound, the AUC(0-inf) [8, 20] was 4180 ± 1190 ng·h/mL, the half-life [8, 20] was 4.87 ± 0.3 h and the MRT inf ([8]; rat, plasma, po, PND i.g 3.5 mg/kg, Control, Mean ± SD) was 12.8 ± 0.22 h. The “Accumulation of PND in bile” value [9] was 2.68–3.35 % of dosing, the Clint [10] was 0.073 µL/min and the Vmax [10] was 1.11 nmol/(min×mg Protein). The “PND metabolized in LMs in the presence of NADPH” value ([11]; NADPH, within 1 h, PND 2 µM) was “Approximately 96%”, the “Prototype drug eliminated in the presence of UDPGA” value (shortened to “Prototype drug eliminated”) ([11]; UDPGA, PND 2 µM) was “more than 65%” and the “Stability in LMs without co-factors” value ([11]; without NADPH or UDPGA) was “stable”. The “PND diminished in LM system in the presence of NADPH” value ([12]; NADPH, within 60 min, PND 2 µM) was “Less than 16%”, the “Prototype drug eliminated” value ([12]; UDPGA, PND 2 µM) was “more than 65%” and the “Stability in LMs without co-factors” value ([12]; without NADPH or UDPGA) was “stable”. The “PND metabolized in LMs in the presence of NADPH” value ([13]; NADPH, within 1 h, PND 2 µM) was roughly 89%, the “Prototype drug eliminated” value ([13]; UDPGA, PND 2 µM) was “more than 65%” and the “Stability in LMs without co-factors” value ([13]; without NADPH or UDPGA) was “stable”. For the same compound, the Clint [14] was 0.069 µL/min, the Vmax [14] was 1.11 nmol/(min×mg Protein) and the Clint [15] was 0.013 µL/min. The Vmax [15] was 1.28 nmol/(min×mg Protein), the Bioavailability [16] was “low” and the “Detection of PND (M0) in bio-samples” value [17] was “detected in all bio-samples”.
